Measurements reported in patent US7122668B2, “Platinum complexes and their use in therapy” (priority 2002, dated 2006).

Experiments:
[1] = tested on: caspase-3 in C-26 cells; experiment: EnzChek Caspase-3 assay; assay type: cell-based, human; conditions: 4.5 μM complex, cisplatin 1.5 μM, 5 or 16 hrs
From the text: (§1) (2) By the EnzChektm Caspase-3 Assay Kit (Molecular probes, Eugene, Oreg.). This Kit allows the detection of apoptosis by assaying for increases in caspase-3 and other DEVD-specific protease activities (e.g., caspase-7). The basis for the assay is rodamine 110 bis-(N-CBZ-aspartil-L-glutarnyl-L-valyl-aspartic acid amide) (Z-DEVD-R110). This substrate is a bisamide derivative of rhodamine 110(R110) containing DEVD peptides covalently linked to each of R110's amino groups. Upon enzymatic cleavage, the non-fluorescent bisamide substrate converted to the fluorescent R110, which can be quantified by fluorescence microplate reader using excitation at 485±10 nm and emission detection at 535±10 nm.
(§2) (12) (5 μM and 7.5 μM, respectively) for 5 or 16 hr. Both “induced” and “control” cells were then harvested and lysed. Enzyme reactions were performed in 96-well plates with 50 μg of cytosolic proteins (55 minutes of incubation) and with a final concentration of 25 μM Z-DEVD-R110 substrate as described in the kit protocol.

[2] = tested on: caspase-3 in OV-1063 cells; experiment: EnzChek Caspase-3 assay; assay type: cell-based, human
From the text: as §1, §2

[3] = tested on: C-26 cells; assay type: cell-based; conditions: cell lines of Table 1
Method: A human ovarian carcinoma cell line (OV-1063), established at the Hadassah University hospital and human colon carcinoma cell line (C-26) were maintained in RPMI-1640 medium supplemented with 10% FCS, antibiotics and glutamine. All culture medium components were purchased from Biological Industries (Beit-HaEmek, Israel). Both cell lines were maintained at 37° C. in a water-jacketed CO2 incubator.
Cytotoxicity of the synthesized complexes was tested by the methylene blue (MB) staining assay^(19). A fixed number of exponentially growing cells in 200 μl medium were plated in 96-microwell, flat-bottomed plates. For each of the complexes tested, 4 well were used. Following 24 hr in culture, 20 μl of different concentration of the complexes were added to each well containing untreated cells. Normal saline was added to the controls. Cells were exposed to complexes for 4, 24, or 72 hr. At the end of exposure for a fixed time interval, the treated cells as well as parallel control cells were washed and incubation was continued in fresh medium until termination of the experiment. Following 72 hr of growth, cells were fixed by adding 50 μl of 2.5% of glutaraldehyde to each well for 15 min. Fixed cells were rinsed 10 times with fresh de-ionized water and once with borate buffer (0.1 M, pH=8.5), dried and stained with MB (100 μl of 1% solution in 0.1 M borate buffer, pH=8.5) for 1 hr at room temperature. Stained cells were rinsed thoroughly with de-ionized water to remove any non-cell-bound die and then dried. The MB bound to the fixed cells was extracted by incubation at 37° C. with 200 μl of 0.1N HCl for 1 hr, and the net optical density (OD) of the die in each well was determined by a plate spectrophotometer (Labsystems Multyskan BICHROMATIC, Finland) at 620 nm.

[4] = tested on: calf thymus DNA; experiment: DNA binding (calf thymus DNA platination)
Method: The formation of calf thymus DNA platination was also examined. To this end, calf thymus DNA was incubated with different compounds (Table 3) in which the following parameters were determined: […]

[5] = tested on: C-26 cells; experiment: Determination of Pt-DNA adducts by FAAS; assay type: cell-based, human
Method: Cells were seeded for 48 hr before one of the drugs was added to the culture medium. After 24 hr of exposure, the complexes were removed and the cells washed twice with ice-cold PBS and pelleted. DNA from platinum-containing material (2*10^6 cells) was extracted from the cell pellet by QIAamp DNA Blood Kit (QIAGEN, Germany) according to the manufacture instructions. DNA yield was determined by measuring the concentration of DNA in the eluate by absorbance at 260 nm.

[6] = tested on: C-26 cells; conditions: 5 hr, 4.5 μM
From the text: (§3) (1) By staining of the C-26 and OV-1063 cells with Merocyanine 540 (MC 540) (Molecular probes, Oregon, USA) and 4′, 6-diamidino-2-phenylindone dihydrochloride (DAPI) (Molecular probes, Oregon, USA). This assay is based on the observation that soon after the initiation of apoptosis, phosphatidylserine (PS) translocates from the inner face of the plasma membrane to the cell surface. At this point, PS can be easily detected by staining with MC 540, which has a strong affinity to PS^(25). Chromatin condensation was assessed by staining with DAPI, which preferentially stains double stranded DNA. In the following experiments samples containing 5*10^5 cells were cultured on 6-well plates covered with a glass coverslip. After treatment of cells with IC50 of the complexes, cells were washed with PBS and incubated for 2 min in the dark in 500 μl of PBS containing 2.5 μl of MC 540 (1 mg/ml). After that cells were washed with PBS, fixated with 4% formaldehyde and stained with 300 μl DAPI (3 μM). Thereafter, glass coverslip was placed on a glass slide and photographed using a fluorescence confocal microscope.
(§4) Apoptosis, also known as programmed cell death, is involved in the regulation of cell number in multicellular organism, and the pathogenesis of various diseases, including tumor progression, neurodegenerative disorders and viral infections. […]

[7] = tested on: OV-1063 cells; conditions: 5 hr, 6.5 μM
From the text: as §3, §4

[8] = tested on: A2780cisR; experiment: Microculture tetrazolium (MTS) cell survival assay; assay type: cell-based
Method: (§5) Cytotoxicity of the synthesized complexes was also tested by the MTS method^(21). Accordingly, the compounds were incubated for 24 hours with the corresponding cell lines and the cell survival in compound-treated cultures was evaluated.
(§6) The complexes were incubated for 24 hours with the above mentioned cell lines and the cell survival in compound-treated cultures was evaluated by the (microculture tetrazolium) MTS method as previously reported.

[9] = tested on: 41M; experiment: Microculture tetrazolium (MTS) cell survival assay; assay type: cell-based; conditions: 24 hours incubation
Method: as §5, §6

[10] = tested on: CH1; experiment: Microculture tetrazolium (MTS) cell survival assay; assay type: cell-based; conditions: 24 hours incubation
Method: as §5, §6

[11] = tested on: CH1cisR; experiment: Microculture tetrazolium (MTS) cell survival assay; assay type: cell-based
Method: as §5, §6

[12] = tested on: A2780; experiment: Microculture tetrazolium (MTS) cell survival assay; assay type: cell-based; conditions: 24 hours incubation
Method: as §5, §6

[13] = tested on: 41McisR; experiment: Microculture tetrazolium (MTS) cell survival assay; assay type: cell-based
Method: as §5, §6

C1CCNCC1.Cc1ccncc1.[Cl][Pt][Cl] [Complex 5, trans-[PtCl2(4-picoline)(piperidine)]]
caspase-3 fluorescent signal [1]: no fluorescent signal
caspase-3 activation, increase in fluorescence vs untreated cells ([2]; 5 hr, 6.5 μM piperidine complex or 7.5 μM piperazine complex): ~2 fold
caspase-3 activation, increase in fluorescence vs untreated cells ([2]; 16 hr): 3 fold
folds less active than cisplatin [3]: 3 folds
% IEC/adduct, frequency of interstrand crosslinks [4]: 2%
unwinding angle per adduct [4]: 11°
t1/2 half time of the binding to calf thymus DNA ([4]; 10 mM NaClO4, 37° C., ri = 0.08, differential pulse polarography): 4.33 h
ΔTm, 0.01M Na+ ([4]; rb = 0.05, 0.01M Na+): +5.5 0.C
ΔTm, 0.2 M ([4]; rb = 0.05, 0.2 M): +0.5 0.C
ΔΔεmax, maximum of the positive CD band at around 275 nm ([4]; rb = 0.05, difference between control and platinated DNA): 0.04
Pt-DNA adducts ([5]; C-26, 24 hr): 51 pmol Pt/50 μg DNA
DNA platination relative to Cis-Pt ([5]; C-26 cells): the same
apoptosis by MC 540/DAPI staining [6]: slightly red-fluorescent
apoptosis by MC 540/DAPI staining [7]: large proportion of the OV-1063 cells appeared to be apoptotic
IC50 ([8]; 24 hours incubation, MTS): 135 ± 7 µM
resistance factor (IC50 resistant/IC50 sensitive) ([8]; A2780cisR/A2780): 15
IC50 [9]: 35 ± 4 µM
IC50 [10]: 26 ± 3 µM
IC50 ([11]; 24 hours incubation, MTS): 169 ± 9 µM
resistance factor (IC50 resistant/IC50 sensitive) ([11]; CH1cisR/CH1): (6.5)
IC50 [12]: 9 ± 1 µM
resistance factor (IC50 resistant/IC50 sensitive) ([13]; 41McisR/41M): 6.0
IC50 ([13]; 24 hours incubation, MTS): 210 µM
